The target of assay [1] is Troponin, cardiac muscle (Homo sapiens, UniProt P19429+P45379+P63316). Description: Fluorescence-based biochemical high throughput dose response assay for activators of the calcium sensitivity of cardiac Regulated Thin Filaments (RTF). [Related pubchem assays (depositor defined):AID493008, AID493018, AID504382, AID504383]. Format: protein-complex assay.
Assay [2] concerns the target T1, Sentrin-specific protease 1 (Homo sapiens, UniProt Q9P0U3). Description: potency of human SENP1 inhibitors, dose response, biochemical, kinetic FRET (AID 651697). The assay is classed as functional. Conditions: read-out: IC50_Mean.
Assay [3] addresses T1, Sentrin-specific protease 1. Description: Dose response confirmation of small molecule inhibitors of the catalytic domain of the SUMO protease, SENP1 in a FRET assay. The assay is classed as functional. The settings on record: read-out: IC50_Mean.
The nature of assay [4]: MDA-MB-231 cell growth inhibition, dose response, cytotoxicity control for RAD54 inhibitor project, CellTiter-Glo luminescence, cherry-pick (AID 651692). Format: functional, cell-based. Background: In ATP-based viability assays light output follows the ATP content of the culture.
The target of assay [5] is T2, DNA repair and recombination protein RAD54-like (Homo sapiens, UniProt Q92698).
T2 sequence (Q92698 whole entry): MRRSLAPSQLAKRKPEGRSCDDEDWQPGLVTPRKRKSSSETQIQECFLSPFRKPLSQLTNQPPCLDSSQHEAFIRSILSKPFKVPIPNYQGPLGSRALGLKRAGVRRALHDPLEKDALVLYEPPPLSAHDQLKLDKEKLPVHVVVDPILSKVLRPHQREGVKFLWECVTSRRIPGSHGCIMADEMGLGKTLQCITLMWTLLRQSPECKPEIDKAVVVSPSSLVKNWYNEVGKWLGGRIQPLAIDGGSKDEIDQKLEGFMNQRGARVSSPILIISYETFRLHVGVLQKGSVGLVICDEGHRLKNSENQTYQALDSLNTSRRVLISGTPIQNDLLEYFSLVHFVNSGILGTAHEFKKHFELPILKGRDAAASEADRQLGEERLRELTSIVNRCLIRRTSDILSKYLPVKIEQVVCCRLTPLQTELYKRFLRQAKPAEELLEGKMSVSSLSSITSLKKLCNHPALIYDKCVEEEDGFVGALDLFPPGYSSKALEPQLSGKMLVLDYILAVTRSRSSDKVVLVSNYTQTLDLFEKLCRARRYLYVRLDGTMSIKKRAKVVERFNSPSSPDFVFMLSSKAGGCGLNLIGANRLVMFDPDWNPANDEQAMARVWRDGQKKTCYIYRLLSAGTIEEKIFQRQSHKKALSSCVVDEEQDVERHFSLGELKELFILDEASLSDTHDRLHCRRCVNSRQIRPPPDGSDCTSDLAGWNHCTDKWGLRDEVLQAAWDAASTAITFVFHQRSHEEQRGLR
Kind of assay: inhibitors of human RAD54 branch migration, confirmation, biochemical, fluorescence, cherry-picked samples, dose series (AID 651657). The assay is classed as functional.

For assay [6], the target named is T3, DNA repair protein RAD52 homolog (Homo sapiens, UniProt P43351).
T3 sequence (P43351 whole entry): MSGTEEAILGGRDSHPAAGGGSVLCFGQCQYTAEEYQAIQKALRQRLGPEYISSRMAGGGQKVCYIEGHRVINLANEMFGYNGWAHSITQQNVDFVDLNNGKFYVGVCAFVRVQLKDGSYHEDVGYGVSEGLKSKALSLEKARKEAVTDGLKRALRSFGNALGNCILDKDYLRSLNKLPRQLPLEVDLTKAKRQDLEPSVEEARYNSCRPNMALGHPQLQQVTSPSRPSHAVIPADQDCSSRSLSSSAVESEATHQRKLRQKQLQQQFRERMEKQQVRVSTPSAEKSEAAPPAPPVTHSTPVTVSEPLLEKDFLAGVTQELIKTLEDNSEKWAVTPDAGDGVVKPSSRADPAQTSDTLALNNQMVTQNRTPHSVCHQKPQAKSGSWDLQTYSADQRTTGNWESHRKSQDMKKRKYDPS
The assay is classed as functional, biochemical.

Assay [7] addresses T4, Sentrin-specific protease 8 (Homo sapiens, UniProt Q96LD8).
T4 sequence (Q96LD8 whole entry): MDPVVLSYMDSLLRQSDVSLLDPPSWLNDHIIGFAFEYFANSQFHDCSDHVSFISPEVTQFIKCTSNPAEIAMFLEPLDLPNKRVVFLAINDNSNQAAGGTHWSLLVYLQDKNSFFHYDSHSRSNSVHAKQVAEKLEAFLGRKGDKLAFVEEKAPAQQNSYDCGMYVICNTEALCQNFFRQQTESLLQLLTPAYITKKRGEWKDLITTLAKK
The assay is classed as functional.

Assay [8] addresses T4, Sentrin-specific protease 8. The assay is classed as functional. The source holds these as a separate data set.
In assay [9] the target is Beta-galactosidase (Escherichia coli, UniProt Q8VNN2). Description: PubChem AID 485352. The assay is classed as functional.
The target in assay [10] is G-protein coupled receptor 55 (Homo sapiens, UniProt Q9Y2T6). Kind of assay: GPR55 antagonists blocking LPI-driven arrestin recruitment, primary screen, imaging, U2OS, beta-arrestin-GFP, LPI agonist (AID 2013).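 Note: antagonist potency measured as reduced agonist-driven arrestin aggregation.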 Format: functional. In general terms: Arrestin recruitment assays detect the binding of arrestin to an activated receptor.
The nature of assay [11]: inhibitors of intracellular T. cruzi replication, confirmation, NIH3T3 host cells, beta-gal luminescence (AID 2044).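 Note: intracellular parasites grown in NIH/3T3 mouse fibroblasts as host cells; luminescent beta-galactosidase reporter signal from transgenic T. cruzi replicating inside host cells; inhibitors lower the luminescence signal.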 The assay is classed as functional, cell-based.
The target in assay [12] is T5, Type-1 angiotensin II receptor (Homo sapiens, UniProt P30556).
T5 sequence (P30556 whole entry): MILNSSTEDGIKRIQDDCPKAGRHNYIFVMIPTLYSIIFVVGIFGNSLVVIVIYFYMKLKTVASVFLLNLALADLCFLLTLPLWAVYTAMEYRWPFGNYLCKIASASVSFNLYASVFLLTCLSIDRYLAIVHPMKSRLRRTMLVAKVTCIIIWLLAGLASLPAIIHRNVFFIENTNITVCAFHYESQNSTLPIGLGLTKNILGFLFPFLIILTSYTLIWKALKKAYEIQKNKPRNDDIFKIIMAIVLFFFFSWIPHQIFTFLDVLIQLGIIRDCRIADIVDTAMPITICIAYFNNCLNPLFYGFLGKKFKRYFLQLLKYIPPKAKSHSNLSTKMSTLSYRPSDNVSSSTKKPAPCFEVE
Kind of assay: AT1 receptor antagonists, dose response, selectivity assay for APJ receptor antagonist project, cell-based, uHTS hits (AID 463214).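 Note: antagonist potency against angiotensin II stimulated AT1 response.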 Format: functional.

Assay [13] in a line: cytotoxicity toward NIH3T3 fibroblasts, dose response, counter-screen, cell-based, ATP luminescence, mouse fibroblasts (AID 2010).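 Note: cells exposed to compound for about 90 hours before reading.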 Format: functional.
Assay [14] deals with T6, Replicative DNA helicase DnaB (Mycobacterium tuberculosis, UniProt P9WMR3).
T6 sequence (P9WMR3 whole entry): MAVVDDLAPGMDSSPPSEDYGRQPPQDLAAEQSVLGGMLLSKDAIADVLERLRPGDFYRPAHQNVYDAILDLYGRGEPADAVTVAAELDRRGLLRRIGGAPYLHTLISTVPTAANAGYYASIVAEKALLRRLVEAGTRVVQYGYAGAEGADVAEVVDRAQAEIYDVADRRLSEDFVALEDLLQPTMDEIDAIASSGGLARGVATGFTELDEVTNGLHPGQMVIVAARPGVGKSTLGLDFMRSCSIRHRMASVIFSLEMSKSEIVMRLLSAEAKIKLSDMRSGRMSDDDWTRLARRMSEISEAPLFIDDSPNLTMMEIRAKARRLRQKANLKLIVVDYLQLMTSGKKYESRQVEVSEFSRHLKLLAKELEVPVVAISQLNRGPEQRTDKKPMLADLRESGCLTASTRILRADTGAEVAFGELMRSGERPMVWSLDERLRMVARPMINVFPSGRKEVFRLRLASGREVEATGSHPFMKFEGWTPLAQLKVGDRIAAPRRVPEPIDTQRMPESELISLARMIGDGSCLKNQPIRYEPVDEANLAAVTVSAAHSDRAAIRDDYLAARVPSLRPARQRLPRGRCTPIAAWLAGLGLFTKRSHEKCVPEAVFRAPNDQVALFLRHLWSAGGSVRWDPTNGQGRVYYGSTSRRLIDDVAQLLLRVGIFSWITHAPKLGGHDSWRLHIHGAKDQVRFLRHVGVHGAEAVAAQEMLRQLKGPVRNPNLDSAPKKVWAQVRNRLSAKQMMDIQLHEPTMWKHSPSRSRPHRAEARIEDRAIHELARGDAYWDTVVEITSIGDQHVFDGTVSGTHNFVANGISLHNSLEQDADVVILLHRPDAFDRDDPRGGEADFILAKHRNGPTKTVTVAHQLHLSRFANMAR
Kind of assay: DnaB intein splicing inhibitors, dose response, biochemical, cell-free fluorescence (AID 449749). Format: functional.

The target of assay [15] is T7, Protein RecA (Mycobacterium tuberculosis, UniProt P9WHJ3).
T7 sequence (P9WHJ3 whole entry): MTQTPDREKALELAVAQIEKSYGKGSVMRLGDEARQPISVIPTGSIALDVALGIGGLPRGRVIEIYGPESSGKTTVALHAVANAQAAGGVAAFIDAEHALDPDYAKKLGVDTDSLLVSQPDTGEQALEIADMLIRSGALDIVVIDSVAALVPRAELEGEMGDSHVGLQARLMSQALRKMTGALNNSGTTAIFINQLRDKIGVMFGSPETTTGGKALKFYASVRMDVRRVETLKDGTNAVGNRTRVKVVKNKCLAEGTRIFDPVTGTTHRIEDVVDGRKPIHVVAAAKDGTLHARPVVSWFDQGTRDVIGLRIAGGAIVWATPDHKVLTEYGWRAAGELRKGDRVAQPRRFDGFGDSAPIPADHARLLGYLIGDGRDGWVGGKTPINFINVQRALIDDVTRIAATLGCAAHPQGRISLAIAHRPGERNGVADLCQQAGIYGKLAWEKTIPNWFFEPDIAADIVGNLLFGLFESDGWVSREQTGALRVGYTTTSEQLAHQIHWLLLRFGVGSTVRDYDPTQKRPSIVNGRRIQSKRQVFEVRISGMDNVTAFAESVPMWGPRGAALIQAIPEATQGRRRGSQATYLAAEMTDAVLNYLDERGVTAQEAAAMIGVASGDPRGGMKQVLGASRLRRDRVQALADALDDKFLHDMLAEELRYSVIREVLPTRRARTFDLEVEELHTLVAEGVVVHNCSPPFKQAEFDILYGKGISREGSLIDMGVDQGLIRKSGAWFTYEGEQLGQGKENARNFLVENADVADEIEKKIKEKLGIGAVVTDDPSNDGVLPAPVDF
Description: Fluorescence Cell-Free Homogeneous Dose Retest to Identify Inhibitors of RecA-Intein Splicing Activity. [Related pubchem assays (depositor defined):AID2097, AID2223, AID489010, AID492950]. The assay is classed as functional.

Assay [16] can be described thus: Fluorescence-based cell-based high throughput dose response assay for inhibitors of the interaction of nucleotide-binding oligomerization domain containing 2 (NOD2) and the receptor-interacting serine-threonine kinase 2 (RIPK2). Conditions: Homo sapiens. The assay is classed as functional.
Assay [17] deals with Beta Lactamase (Pseudomonas aeruginosa, UniProt Q932Y6). Description: beta-lactamase reporter inhibitor potency, dose response, artefact control for NOD2-RIPK2 interaction inhibitor project, BLA reporter cells, FRET fluorescence (AID 651552). The assay is classed as functional, cell-based.
Assay [18] is described as follows: miR-122 activators in hepatoma reporter cells, dose response, cell-based, Huh7 psiCHECK-miR122, Renilla luciferase, cherry-picked (AID 651956).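 Note: huh7 hepatoma cells stably carrying a psiCHECK-2 miR-122 sensor plasmid; renilla luciferase signal reporting endogenous miR-122 activity after 48 h compound exposure.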 Format: functional.
Assay [19] can be described thus: A549 cell cytotoxicity, dose response, cytotoxicity control, plate reader, cherry-pick, antagonist series (AID 743412). The assay is classed as functional, cell-based.
Assay [20] in a line: HepG2 cell cytotoxicity, dose response, cytotoxicity control, plate reader, cherry-pick, antagonist series (AID 743416). Format: functional, cell-based.
A short description of assay [21]: LGR2 antagonists, dose response, cell-based, HEK293, CRE-luciferase reporter, cherry pick, set 2 (AID 743343).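 Note: transfected cells were stimulated with diluted bursicon conditioned medium after compound addition.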 The assay is classed as functional. A general note: In a reporter assay the amount or activity of a reporter protein is the signal.
A short description of assay [22]: HEK293T cytotoxicity, dose response, cytotoxicity control for miR-122 modulator project, cell-based, inhibitor set, cherry-pick, set 2 (AID 720697). Format: functional.
A short description of assay [23]: HEK293T cytotoxicity, dose response, cytotoxicity control for miR-122 modulator project, cell-based, activator set, cherry-pick (AID 720690).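 Note: HEK293T human cells scored for general mammalian cytotoxicity.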 Format: functional.
Assay [24] is described as follows: MC4R antagonists, dose response, counter-screen for LGR2 antagonist project, cell-based, plate reader, cherry pick (AID 743444).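 Note: transfected HEK 293 cells stimulated with alpha-MSH peptide; potency of inhibitors of the alpha-MSH evoked signal.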 The assay is classed as functional.
Assay [25] is described as follows: HEK293 cell cytotoxicity, dose response, cytotoxicity control, plate reader, cherry-picked samples (AID 743446). Format: functional, cell-based.

Structures are written as SMILES. Active and inactive are the calls of the source.

On to `CC(=O)Oc1ccc(N2C(=O)C3C(C2=O)C(C(=O)c2ccc(Cl)cc2)N2CCCC32)cc1` (stereo not given), for which, in assay [1], the EC50 (in general, the concentration at which the effect is half-maximal) is 23.5 µM (inactive). The IC50 in assay [2] was 7.5 µM (active); in assay [3], 4.65 µM (active).
In the case of `CN(C)CCCNc1cc(-c2ccccc2)nc2cc(-c3cccc(F)c3)nn12`, the AC50 (in general, the midpoint of the concentration-response curve, whichever way the signal moves) is 24.4 µM (active) in assay [4], 21.1 µM (active) in [5] and 15.1 µM (active) in assay [6].
Consider `Cn1cnc2c(O)ncc([N+](=O)[O-])c21`, for which the IC50 in [7] was > 100 µM (inactive); in assay [8], 10.4 µM (active).
As for `CNC(=O)c1nnsc1S(=O)(=O)c1ccc(Cl)cc1`, the EC50 is > 40 µM (inactive) in assay [9], 1.24 µM (active) in [11], 2.47 µM (active) in assay [13] and 14.3 µM (active) in assay [15]. The IC50 was 10.6 µM (inactive) in assay [10], 9.67 µM (active) in assay [12], 2.13 µM (active) in assay [16] and 11.3 µM (inactive) in [17]. Besides, the AC50 in [14] was 15.3 µM (active); in [18] it was 18.8 µM (active); in [19], 8.58 µM (active); in [20], 7.37 µM (active); in [21] it was 3.74 µM (active); in assay [22], 4.54 µM (active). Besides, the concentration at half-maximal activity (AC50) is 2.7 µM (active) in assay [23], 3.28 µM (active) in [24] and 7.5 µM (active) in [25].

The values are drawn from ChEMBL document CHEMBL1201862, “PubChem BioAssay data set” (2004).
